{"source": "patent US12287324B2", "about": "“Companion diagnostics for NSAIDS and donepezil for treating specific subpopulations of patients suffering from Alzheimer's disease” (University of North Texas Health Science Center at Fort …, priority 2018, dated 2025)", "test_system": "Individuals with a diagnosis of probable AD", "test": "ADCS anti-inflammatory clinical trial, 1-year exposure; MMSE and CDR-SB outcomes by treatment arm and proinflammatory endophenotype", "assay_type": "in vivo, human", "details": "for MMSE Change, mean (SD): change = screening − 12-month, positive = decline; for participants with mild decline in MMSE (number) / participants with mild decline in MMSE (percent of arm): MMSE decline of 1-2 points over 12 mo; for participants who declined 3 or more points on MMSE (number) / participants who declined 3 or more points on MMSE (percent of arm): over 12-months (adverse responders); for participants with improvement in MMSE scores over 12-months (number) / participants with improvement in MMSE scores over 12-months (percent of arm): responders = improved MMSE >=1 point over 12 mo", "excerpt": "Data source. Banked plasma samples from the Alzheimer's Disease Cooperative Studies (ADCS) anti-inflammatory clinical trial were used. […] This was a multicenter, randomized, double-blind, placebo-controlled parallel group trial with 1-year exposure to study medications across forty ambulatory treatment centers affiliated with the ADCS. […] Inclusion criteria were as follows: age 50 or older, MMSE score of 13-26 and diagnosis of probable AD. Stable use of cholinesterase inhibitors was allowed.\nStatistical Analyses. Biomarker data were transformed using the Box-Cox transformation per previously published protocols, relevant portions incorporated herein by reference. Support vector machine (SVM) analyses were utilized to build the proteomic profiles simultaneously classifying all outcome groups in R per the inventors previously published methods, relevant portions incorporated herein by reference. SVM analyses are capable of simultaneously taking into account large volume data to generate an overall profile (e.g., over and under-expression of select proteins) that most accurately classifies multiple outcomes rather than only binary outcomes. MMSE change scores were utilized as the outcome variables for the study (i.e. MMSE screening−MMSE 12-month follow-up=MMSE change). Participants were classified into four groups based on change in MMSE scores over 12-months: responders (improved MMSE scores of >=1 point over 12 mo), stable (no change in MMSE over 12 months), non-responders (MMSE decline of 1-2 points over 12 mo) or adverse responders (MMSE decline of 3 or more points over 12 mo). To build inflammatory profiles of treatment response, group status (i.e. treatment response) was utilized as the outcome variable in SVM models with pre-randomization inflammatory proteins as the predictor variable. In order to determine if the proinflammatory profile of treatment response was drug-specific, analyses were conducted utilizing the total sample as well as within specific study treatment arms.\nNext, MMSE change scores were dichotomized into improvement versus stable or decline over the 12-mo period.", "key": {"[1]": {"details": "High proinflammatory endophenotype (n = 8)"}, "[2]": {"details": "Low proinflammatory endophenotype (n = 7)"}, "[3]": {"details": "Middle proinflammatory endophenotype (n = 36)"}, "[4]": {"details": "within treatment arm, no change in MMSE over 12 months"}}, "note": "Entries after “also recorded” stand apart in the source; their conditions may differ."}
{"smiles": "COc1ccc2cc([C@H](C)C(=O)O)ccc2c1", "note": "[Naproxen, naproxen]", "values": [{"measurement": "CDR-SB 12 mo, mean (SD)", "setting": "[1]", "value": "5.36 (3.0)"}, {"measurement": "CDR-SB Change, mean (SD)", "setting": "[1]", "value": "0.7 (2.5)"}, {"measurement": "MMSE 12 mo, mean (SD)", "setting": "[1]", "value": "21.2 (5.3)"}, {"measurement": "MMSE Change, mean (SD)", "setting": "High proinflammatory endophenotype (n = 8), p = 0.02 vs placebo high group", "value": "−0.13 (3.1)"}, {"measurement": "CDR-SB 12 mo, mean (SD)", "setting": "[2]", "value": "9.8 (4.1)"}, {"measurement": "CDR-SB Change, mean (SD)", "setting": "[2]", "value": "−2.5 (2.1)"}, {"measurement": "MMSE 12 mo, mean (SD)", "setting": "[2]", "value": "16.1 (5.5)"}, {"measurement": "MMSE Change, mean (SD)", "setting": "[2]", "value": "1.5 (3.1)"}, {"measurement": "CDR-SB 12 mo, mean (SD)", "setting": "[3]", "value": "8.4 (4.1)"}, {"measurement": "CDR-SB Change, mean (SD)", "setting": "[3]", "value": "−2.6 (2.5)"}, {"measurement": "MMSE 12 mo, mean (SD)", "setting": "[3]", "value": "16.5 (6.4)"}, {"measurement": "MMSE Change, mean (SD)", "setting": "[3]", "value": "4.2 (4.6)"}, {"measurement": "decline / change in MMSE scores over a 12 mo period as compared to the placebo group", "setting": "high end of the proinflammatory endophenotype (CRP>1015.52 & TNFα>0.64), F[1,6]=8.2, p=0.03", "value": "significantly reduced decline; also recorded: significantly better"}, {"measurement": "average score of dichotomized MMSE change (improvement versus stable or decline)", "setting": "high proinflammatory endophenotype, 12-mo period, Placebo group 0.25", "value": 0.63}, {"measurement": "patients improved on MMSE (dichotomized)", "setting": "high proinflammatory endophenotype, 12-mo period, Placebo group 25%", "value": 63, "unit": "%"}, {"measurement": "improvement in MMSE scores over 12 months as compared to the Placebo group", "setting": "high proinflammatory endophenotype, age, gender, education, APOE4 as covariates, F[1,6]=10.9, p=0.02", "value": "significant improvement"}, {"measurement": "cognitive course (MMSE) in the low end of the proinflammatory endophenotype", "setting": "low end, CRP and TNFα cut-scores of the naproxen-specific algorithm", "value": "trend towards those in the low end to experience significant decline"}, {"measurement": "participants with mild decline in MMSE (number)", "setting": "within treatment arm", "value": 10}, {"measurement": "participants with mild decline in MMSE (percent of arm)", "setting": "within treatment arm", "value": 20, "unit": "%"}, {"measurement": "participants who declined 3 or more points on MMSE (number)", "setting": "within treatment arm", "value": 26}, {"measurement": "participants who declined 3 or more points on MMSE (percent of arm)", "setting": "within treatment arm", "value": 51, "unit": "%"}, {"measurement": "participants with improvement in MMSE scores over 12-months (number)", "setting": "within treatment arm", "value": 10}, {"measurement": "participants with improvement in MMSE scores over 12-months (percent of arm)", "setting": "within treatment arm", "value": 20, "unit": "%"}]}
{"smiles": "CS(=O)(=O)c1ccc(C2=C(c3ccccc3)C(=O)OC2)cc1", "note": "[Rofecoxib, rofecoxib]", "values": [{"measurement": "participants with mild decline in MMSE (number)", "setting": "within treatment arm", "value": 14}, {"measurement": "participants with mild decline in MMSE (percent of arm)", "setting": "within treatment arm", "value": 25, "unit": "%"}, {"measurement": "participants who remained stable on MMSE (number)", "setting": "[4]", "value": 8}, {"measurement": "participants who remained stable on MMSE (percent of arm)", "setting": "[4]", "value": 15, "unit": "%"}, {"measurement": "participants who declined 3 or more points on MMSE (number)", "setting": "within treatment arm", "value": 23}, {"measurement": "participants who declined 3 or more points on MMSE (percent of arm)", "setting": "within treatment arm", "value": 42, "unit": "%"}, {"measurement": "participants with improvement in MMSE scores over 12-months (number)", "setting": "within treatment arm", "value": 9}, {"measurement": "participants with improvement in MMSE scores over 12-months (percent of arm)", "setting": "within treatment arm", "value": 16, "unit": "%"}]}
